Tested on: phosphorylation of MAP kinase (ERK) in murine colon 26 (C26) carcinoma cells
Test: Cellular assay for measuring MEK inhibition: inhibition of ERK phosphorylation, C26CPA1
Assay type: cell-based
Settings: Mus musculus, 1 h, C26 cells treated one hour with test compound
Procedure: (§1) Cellular Assay for Measuring MEK Inhibition
(§2) MEK inhibitors were evaluated by determining their ability to inhibit phosphorylation of MAP kinase (ERK) in murine colon 26 (C26) carcinoma cells. Since ERK1 and ERK2 represent the only known substrates for MEK1 and MEK2, the measurement of inhibition of ERK phosphorylation in cells provides direct read out of cellular MEK inhibition by the compounds of the invention. Detection of phosphorylation of ERK was carried out either by Western blot or ELISA format. Briefly, the assays involve treatment of exponentially growing C26 cells with varying concentrations of the test compound (or vehicle control) for one hour at 35° C. For Western blot assay, cells were rinsed free of compound/vehicle and lysed in a solution containing 50 mM NaCl, 50 mM glycerol phosphate, 10 mM HEPES, pH […], 1% Triton X-100, 1 mM Na3VO4, 100 μM PMSF, 10 μM leupeptin and 10 μM pepstatin. Supernatants were then subjected to gel electrophoresis and hybridized to a primary antibody recognizing dually phosphorylated ERK1 and ERK2. To evaluate total MAPK levels, blots were subsequently ‘stripped’ and re-probed with a 1:1 mixture of polyclonal antibodies recognizing unphosphorylated ERK1 and ERK2. For pERK ELISA assay, pERK TiterZyme Enzyme immunometric Assay kits were acquired from Assay Designs, Inc (Ann Arbor, Mich.). Briefly, cells were harvested in lysis solution containing 50 mM β-glycerophosphate, 10 mM HEPES, pH5.4, 50 mM NaCl, 2mM EDTA and 1% SDS and protein lysates were diluted 1:15 with supplied Assay buffer prior to the execution of the assay. The subsequent steps were carried out essentially as recommended by the manufacturer.
(§3) The inhibition data generated by the above protocol is disclosed in Table I. If several concentrations of inhibitor were tested, IC50 values (the concentration which gives 50% inhiition) were determined graphically from the dose response curve for % inhibition. Otherwise, percent inhibitions at measured concentrations are reported.
(§4) Table I. Cellular Inhibition of ERK Phosphorylation by Compounds of the Invention

IC50	SMILES
0.569 µM	Cn1cnc2c(F)c(Nc3ccc(I)cc3F)c(-c3nnc(NCCO)o3)cc21 [Compound 6]
0.012 µM	Cc1cc(I)ccc1Nc1c(C(=O)NOCC2CC2)cc2c(ncn2C)c1F [Compound 9]
1 µM	COC(=O)c1cc2c(ncn2C)c(F)c1Nc1ccc(I)cc1C [Compound 11]
0.022 µM	COC(=O)Cn1cnc2c(F)c(Nc3ccc(I)cc3C)c(C(=O)NOCC3CC3)cc21 [Compound 12]
0.0034 µM	Cc1cc(I)ccc1Nc1c(C(=O)NOCCO)cc2c(ncn2C)c1F [Compound 13]
0.028 µM	CCCn1cnc2c(F)c(Nc3ccc(I)cc3C)c(C(=O)NOCC3CC3)cc21 [Compound 14]
0.086 µM	Cc1cc(I)ccc1Nc1c(C(=O)NOCC(O)CO)cc2c(ncn2C)c1F (stereo not shown) [Compound 15]
0.11 µM	Cc1cc(I)ccc1Nc1c(C(=O)NOCC2CC2)cc2c(ncn2CCCO)c1F [Compound 16]
0.19 µM	CNCCONC(=O)c1cc2c(ncn2C)c(F)c1Nc1ccc(I)cc1C [Compound 20]
0.268 µM	Cc1cc(I)ccc1Nc1c(-c2nnc(N)o2)cc2c(ncn2C)c1F [Compound 21]
0.041 µM	Cc1cc(I)ccc1Nc1c(C(N)=O)cc2c(ncn2C)c1F [Compound 22]
0.002 µM	Cn1cnc2c(F)c(Nc3ccc(I)cc3F)c(C(N)=O)cc21 [Compound 23]
0.556 µM	Cn1cnc2c(F)c(Nc3ccc(I)cc3F)c(C(=O)NCC(O)CO)cc21 (stereo not shown) [Compound 24]
0.122 µM	Cn1cnc2c(F)c(Nc3ccc(I)cc3F)c(C(=O)NCCO)cc21 [Compound 25]
0.15 µM	Cn1cnc2c(F)c(Nc3ccc(I)cc3F)c(C(=O)NCCCO)cc21 [Compound 26]
0.566 µM	Cc1cc(I)ccc1Nc1c(CO)cc2c(ncn2C)c1F [Compound 28]
0.0004 µM	Cn1cnc2c(F)c(Nc3ccc(I)cc3F)c(C(=O)NO)cc21 [Compound 30]
1 µM	Cn1cnc2c(F)c(Nc3ccc(I)cc3F)c(C(=O)NCCCN)cc21 [Compound 31]
0.0019 µM	Cn1cnc2c(F)c(Nc3ccc(I)cc3F)c(C(=O)NOCCO)cc21 [Compound 32]
0.022 µM	Cn1cnc2c(F)c(Nc3ccc(I)cc3F)c(C(=O)NOC[C@H](O)CO)cc21 [Compound 34]
0.00885 µM	Cc1cc(I)ccc1Nc1c(C(=O)NOCC2CC2)cc2c(ncn2CC(O)CO)c1F (stereo not shown) [Compound 35]
0.23 µM	CCc1ccc(Nc2c(C(=O)OC)cc3c(ncn3C)c2F)c(F)c1 [Compound 38]
0.08 µM	Cn1cnc2c(F)c(Nc3ccc(I)cc3F)c(CO)cc21 [Compound 40]

Tested on: phosphorylation of MAP kinase (ERK) in murine colon 26 (C26) carcinoma cells
Test: Cellular assay for measuring MEK inhibition: inhibition of ERK phosphorylation, C26ELSA (pERK ELISA)
Assay type: cell-based
Settings: Mus musculus, 1 h, C26 cells treated one hour with test compound
Procedure: as §1, §2, §3, §4

IC50	SMILES
0.55 µM	Cn1cnc2c(F)c(Nc3ccc(I)cc3F)c(C(=O)NCCCO)cc21 [Compound 1]
0.00842 µM	Cn1cnc2c(F)c(Nc3ccc(I)cc3F)c(C(N)=O)cc21 [Compound 23]
0.28 µM	CCc1ccc(Nc2c(C(N)=O)cc3c(ncn3C)c2F)c(F)c1 [Compound 42]

Tested on: not given
Test: not given
Settings: not given

melting point	SMILES
265 to 268 °C (dec.)	Cn1cnc2c(F)c(Nc3ccc(I)cc3F)c(C(N)=O)cc21 [Example 2]
258 to 260 °C	Cc1cc(I)ccc1Nc1c(-c2nnc(N)o2)cc2c(ncn2C)c1F [Example 4, [6-(5-amino-[1,3,4]oxadiazol-2-yl)-4-fluoro-1-methyl-1H-benzoimidazol-5-yl]-(4-iodo-2-methyl-phenyl)-amine]

— patent US7160915B2, “N-methyl-substituted benzamidazoles” (Warner-Lambert Company, LLC, priority 2003, dated 2007)
